Literature values as cited in patent US8097707B2, “Compositions and processes for preparing 13-deoxy-anthracyclines” (priority 2004, dated 2012).

Details: test systems where doxorubicin is not metabolized appreciably to the 13-dihydro alcohol metabolite (doxorubicinol)

COc1cccc2c1C(=O)c1c(O)c3c(c(O)c1C2=O)C[C@@](O)(C(=O)CO)C[C@@H]3O[C@H]1C[C@H](N)[C@H](O)[C@H](C)O1 [doxorubicin]
cardiotoxic effects: no significant cardiotoxic effects
